Experimental data: patent publication US10406129B2 (priority 2015, dated 2019)
“Also recorded” adds a separate entry of the source. Read-outs that look alike come from different tables or passages of the source.

Key:
[1] = tested on: platelets; conditions: 4 mg/kg/day; hypercholesterolemic rat model; cited from earlier work
[2] = tested on: postmenopausal women; assay: Microvascular function by peripheral arterial tonometry (Endo-PAT2000) after intake of 90 mg ResArgin or trans-res; type: in vivo, human; conditions: combined data
[3] = Plasma resveratrol concentrations after intake (HPLC), one hour study; type: in vivo, human; conditions: median (interquartile range), n=30
Experimental: Participants were randomized by block design to consumed trans-res or ResArgin™ in random order. Randomization was performed by the study coordinator following a predetermined plan formulated via a web-based random number generator. […] The study included two separate investigations: a one hour study and a two hour study (FIG. 6). During each study visit, which took place after an overnight fast, a baseline measurement of PAT and a blood sample were collected, followed by consumption of the assigned treatment. During the one hour study, PAT measurements and blood samples were collected thirty and […] minutes after the capsules were consumed. During the two hour study, a PAT measurement and blood sample were taken two hours after the capsules were consumed.
Briefly, plasma was treated with acidified methanol [0.5% (v/v) of acetic acid in methanol; precooled to −20° C.] containing an appropriate recovery standard. The mixture was stored at −80 C for 12 hours to allow for cryo-assisted protein precipitation, and then centrifuged for 15 min at 16,500×g. The supernatant fraction was transferred and its volume reduced to less than 50 μL by removing the solvents under vacuum with a […] SpeedVac Concentrator (Thermo Electron Corporation, Milford, Mass.). […]

[4] = tested on: platelets; assay: Platelet function by whole blood/optical lumi-aggregometer after intake; type: in vivo, human
Experimental: Platelet reactivity during clinical screening was assessed by a PFA-100 (Siemens, Deerfield, Ill.), which measures platelet function by simulating arterial hemostasis under blood flow shear stress. During the intervention, platelet function was assessed by a whole blood/optical lumi-aggregometer (Chrono-log Model 700, Havertown, Pa.). Briefly, platelet aggregation was measured via electrical impedence (or electrical resistance), whereas lumi-aggregometry was used to examine aggregation together with adenosine triphosphate (hereafter, “ATP”) release, which is determined with firefly luciferin-luciferase system. […] One of the following agonists was used to stimulate platelets: collagen (1 μL and 5 μL), AA (10 μL) or ADP (10 μL). ATP release was measured only when platelets were activated with ADP. The aggregation was measured over a period of six minutes, following the addition of an agonist.

[5] = tested on: endothelial nitric oxide synthase (eNOS); conditions: 1 μM; human umbilical vein endothelial cells; cited from earlier work
[6] = tested on: platelets; conditions: in vitro; 10-1,000 μM; dose dependent; cited from earlier work
[7] = tested on: platelets; conditions: 10 mg daily for three months; stable coronary artery disease patients; cited from earlier work
[8] = platelets stimulated with 10 μL arachidonic acid, one hour after intake

## Oc1ccc(C=Cc2cc(O)cc(O)c2)cc1 [Resveratrol, 3,5,4′-trihydroxystilbene]
[1]
  ADP-induced platelet aggregation: inhibited

## Oc1ccc(/C=C/c2cc(O)cc(O)c2)cc1 [trans-res, Trans-resveratrol]
[2]; one and two hours post-consumption
  Change in FRHI compared to baseline: No differences; also recorded: no changes
[2]; one hour after intake
  Significant improvement in RHI compared to baseline: not observed
[3]; 30 minutes after intake of 90 mg
  Plasma resveratrol concentration: 2.04 (0.82, 2.54)
[3]; 60 minutes after intake of 90 mg
  Plasma resveratrol concentration: 2.65 (1.69, 3.44)
[4]; lumi-aggregometry with 10 μL ADP, one-hour post consumption
  Slope, change from baseline: significant decrease
[4]; platelets stimulated with 1 μL collagen, one hour after consumption
  Slope, change from baseline: not
[4]; platelets stimulated with 1 μL collagen, one-hour post consumption
  Lag time, change from baseline: significant increase
[4]; [8]
  Area under the curve (AUC) of aggregation, change from baseline: no changes
  Maximum aggregation, change from baseline: no changes
[4]; stimulation with 5 μL collagen
  Platelet function, change from baseline: no significant changes
[5]
  Expression of eNOS: up-regulated
[6]
  Platelet aggregation: significantly reduced
[7]
  Platelet aggregation: significantly reduced
